The assay has as its target α-glucosidase from bakers yeast. As to the kind of experiment: α-Glucosidase inhibition assay, p-nitrophenyl-α-D-glucopyranoside substrate, 96-well format. The format is biochemical. To be noted: concentration necessary for 50% enzyme inhibition.

Where only a bound is given, the exact number is not on record here.

As to `N[C@@H](Cc1cn(Cc2ccc3ccccc3c2)c2ccccc12)C(=O)N(CCC(=O)NCc1ccccc1)Cc1ccc2ccccc2c1` [hydrogen atom, AA = 1], the half-maximal inhibitory concentration (IC50) (commonly the midpoint of a concentration-inhibition curve) stood at 770 µM.

In turn, `NC(Cc1cn(Cc2ccc3ccccc3c2)c2ccccc12)C(=O)N(Cc1ccc2ccccc2c1)C(CO)C(=O)NCc1ccccc1` (stereo not drawn) [S-(1-hydroxymethyl)] had an IC50 of 176 µM.

Compound `CC(O)C(C(=O)NCc1ccccc1)N(Cc1ccc2ccccc2c1)C(=O)C(N)Cc1cn(Cc2ccc3ccccc3c2)c2ccccc12` (stereo not drawn) [R-(1-hydroxyethyl)] came in with an IC50 of over 1000 µM.

In turn, `N[C@@H](Cc1cn(Cc2ccc3ccccc3c2)c2ccccc12)C(=O)N(Cc1ccc2ccccc2c1)[C@H](Cc1ccc2ccccc2c1)C(=O)NCc1ccccc1` [R-(napth-2-ylmethyl)] returned an IC50 of over 1000 µM.

`CC(O)C(C(=O)NCc1ccccc1)N(Cc1ccc2ccccc2c1)C(=O)C(N)Cc1cn(Cc2ccc3ccccc3c2)c2ccccc12` (stereo not drawn) [R'-(1-hydroxyethyl)] displayed an IC50 of 678 µM.

With `NC(Cc1cn(Cc2ccc3ccccc3c2)c2ccccc12)C(=O)N(Cc1ccc2ccccc2c1)C(Cc1cn(Cc2ccccc2)c2ccccc12)C(=O)NCc1ccccc1` (stereo not drawn) [R-(N'-benzylindol-3-ylmethyl)], inhibition was half-maximal at 552 µM (IC50).

In the case of `N[C@@H](Cc1cn(Cc2ccc3ccccc3c2)c2ccccc12)C(=O)N(Cc1ccc2ccccc2c1)[C@@H](CCC(=O)O)C(=O)NCc1ccccc1` [S-(2-carboxyethyl)], the IC50 is over 1000 µM.

`N[C@@H](Cc1cn(Cc2ccc3ccccc3c2)c2ccccc12)C(=O)N(Cc1ccc2ccccc2c1)[C@@H](Cc1cn(Cc2ccccc2)c2ccccc12)C(=O)NCc1ccccc1` [S-(N'-benzylindol-3-ylmethyl)] yielded an IC50 of 632 µM.

Regarding `NC(Cc1cn(Cc2ccc3ccccc3c2)c2ccccc12)C(=O)N(Cc1ccc2ccccc2c1)C(CC1CCCCC1)C(=O)NCc1ccccc1` (stereo not drawn) [R-(cyclohexylmethyl)], the IC50 was over 1000 µM.

For `CCN(C(=O)[C@@H](N)Cc1ccccc1)[C@H](C(=O)NCc1ccc2ccccc2c1)c1ccccc1` [S-(phenyl)], the half-maximal inhibitory concentration (IC50) amounted to 184 µM.

With `CCN(C(=O)[C@@H](N)Cc1ccccc1)[C@H](Cc1ccc(O)cc1)C(=O)NCc1ccc2ccccc2c1` [R-(4-hydroxybenzyl)], the IC50 came out at 540 µM.

The compound `CCN(C(=O)[C@@H](N)Cc1ccccc1)[C@@H](Cc1ccc2ccccc2c1)C(=O)NCc1ccc2ccccc2c1` [S-(napth-2-ylmethyl)] yielded a half-inhibitory concentration (IC50) of over 1000 µM.

Source of the values: patent publication US6121489A (priority 1997, dated 2000).
